Data from patent publication US12611439B2, “Ionic self-assembling peptides” (3-D MATRIX, LTD., priority 2018, dated 2026).
Peptide text beside a SMILES is read from it.

Tests used:
[1] = system: pig stomach submucosa; test: Submucosal injection in in vivo porcine model, stomach; settings: 2 mL of 0.1% (w/v) peptide, 0.9% NaCl, pH 7.5; pig stomach
Procedure: An in vivo porcine animal model was used to perform endoscopic mucosal and submucosal dissections as described in Uraoka et al. (2009) Drug Des. Devel. Ther. 2:131-8, incorporated herein by reference. Briefly, 2 mL of select peptide formulations were injected in between the […] in stomach of a pig and the submucosa was dissected using electro-knife. The gross appearance of the injection site and of dissected submucosal tissues at the injection sites were analyzed. […] Therefore, an in vivo porcine model system was used to assess the ability of these compositions to induce submucosal elevation upon injection into gastrointestinal submucosa, and the degree of tissue damage. In this model, submucosal injections with liquid compositions were performed and the morphology of the site of injection analyzed. Submucosal injection with aqueous solutions is used during the excision of lesions from the gastrointestinal tract in order to facilitate removal of the lesion by providing a safety cushion during resection (see, e.g., Kim et al. (2013) World J. Gastroenterol. 19(20): 3069-76, incorporated herein by reference). Here, aqueous pharmaceutical compositions comprising three exemplary self-assembling peptides formulated at pH 7.5: KLNL12 (SEQ ID NO:21), NLKL12 (SEQ ID NO:23) or KIQI13 (SEQ ID NO:29), were compared to an aqueous pharmaceutical composition comprising the previously described RADA16 self-assembling peptide (formulated at pH 2.5), a 0.4% solution of sodium hyaluronate (MucoUp®, Boston Scientific Japan K.K., Tokyo, Japan), and saline, pH 7.5.

[2] = Thixotropic measurements (storage modulus after shear); assay type: physicochemical; settings: 1% peptide, 0.9% NaCl, pH 7.5; 1000 1/s shear for 1 min
Procedure: Peptides formulated as aqueous solutions (200 μL), were placed between the plates of a rheometer (DHR-1, TA Instruments, 20 mm plates at a measuring geometry of 500 μm) and the sample was exposed to a fast plate rotation at 1000 s^−1 of shear rate for 1 minute and the storage modulus was measured at 1 rad s^−1 angular frequency for 10 minutes.
FIGS. 11 and 12 show the thixotropic properties of pharmaceutical compositions comprising 1% KLNL12 (SEQ ID NO:21) or 1% NLEL12 (SEQ ID NO:33), and 0.9% NaCl, at pH 7.5, after shear stress is removed. The aqueous pharmaceutical compositions were flowed at 1000 l/s of shear rate for 1 min and their storage modulus at 10 rad/s of frequency and at 0.1 Pa of stress was tested over time.

[3] = Viscosity determination at increasing shear rate (shear thinning); assay type: physicochemical; settings: pH 7.5
Procedure: Peptides formulated as aqueous solutions (200 μL), were placed between the plates of a rheometer (DHR-1, TA Instruments, 20 mm plates at a measuring geometry of 500 μm) and the viscosity was measured from 0.001 s^−1 to 100 s^−1 shear rate. Thixotropic Measurements
In some clinical applications, administration of pharmaceutical compositions comprising self-assembling peptides requires exposing the compositions to pressure and/or shear thinning (e.g., during injection through a syringe needle or transferred via a pump-based system). […] To determine the shear thinning properties of pharmaceutical compositions of the self-assembling peptides formulated at pH 7.5, formulations comprising varying ionic strengths were prepared using different concentrations of sodium chloride, and viscosity measured at increasing shear rates. Thixotropic properties of formulations were also determined as well as the storage modulus over time at specific frequencies and pressure.
FIGS. 6-8 show the experimentally determined viscosity of aqueous pharmaceutical compositions comprising either 1% (w/v) KLNL12 (SEQ ID NO:21), 1% (w/v) IQIK13 (SEQ ID NO:28), or 1% (w/v) NLEL12 (SEQ ID NO:33), at pH 7.5. FIGS. 9 and 10 show the experimentally determined viscosity of aqueous pharmaceutical compositions comprising either 1% KLNL12 (SEQ ID NO:21) or 1% NLEL12 (SEQ ID NO:33), and 0.9% NaCl (to mimic physiological conditions) at pH 7.5. […] That is, decreased viscosity with increasing sheer rate. This property may advantageously facilitate application and use of the pharmaceutical compositions (e.g., due to decreased viscosity while pumping) while maintaining a desirable viscosity at a site of application (e.g., where no sheer force is being applied).

[4] = Frequency sweep test (storage modulus) before and after exposure to DMEM; assay type: physicochemical; settings: 1% (w/v) peptide, pH 7.5
Procedure: Peptides formulated as aqueous solutions were placed between the plates of a rheometer (DHR-1, TA Instruments, 20 mm plates at a measuring geometry of 500 μm or 40 mm cone and plate at a measuring geometry of 2.0° of cone angle) and frequency stress sweep tests were performed at 0.1 Hz to 10 Hz of frequency with 0.1% of strain; measurements were performed after 2 minutes of relaxation time at 37° C. To do frequency sweep tests after exposure to Dulbecco's Modified Eagle Medium (DMEM), 10 mL of DMEM was added in chamber surrounding the plates, the sample in plates was submerged into the DMEM and the frequency test was performed as described after 20 minutes.
Rheological properties of aqueous pharmaceutical compositions comprising the exemplary self-assembling peptides KLNL12 (SEQ ID NO:21), KIQI13 (SEQ ID NO:29), or NLEL12 (SEQ ID NO:33) were determined by performing a frequency sweep test over storage modulus.
In some embodiments, peptides formulated as aqueous solutions, volume 700 μl, were placed between the plates of a rheometer (DHR-1, TA Instruments, 40 mm cone and plate at a measuring geometry of 2.0° of cone angle) and frequency sweep tests were performed at 0.1 Hz to 10 Hz of frequency with 0.1% of strain; measurements were performed after 2 minutes of relaxation time at 37° C. In some embodiments, frequency sweep tests were performed after exposure to Dulbecco's Modified Eagle Medium (DMEM), where 10 mL of DMEM was added in chamber surrounding the plates, the sample in plates was submerged into the DMEM and the frequency test was performed as described after 20 minutes.

[5] = Net charge of self-assembling peptides in solution; assay type: physicochemical; settings: for net charge as a function of pH: around neutral pH; for Net charge at pH 7.5: in solution at pH 7.5
From the text: Several exemplary self-assembling peptides described herein (Table 5; SEQ ID NO:21-40) were designed to have a net charge, positive or negative, when formulated at pH 7.5. In contrast, previously-described self-assembling peptides have a net zero charge at the same pH.

[6] = system: porcine esophagus mucosa; test: Submucosal injection in in vivo porcine esophagus; settings: pig, in vivo
Procedure: In another embodiment, mucosal aggregation visualized as white precipitate near the injection site was evaluated in an in vivo porcine esophagus.

| Structure (SMILES) | submucosal elevation after injection [1] | submucosal elevation over time compared with saline and MucoUp [1] | thixotropic properties (storage modulus over time after shear stress is removed) [2] | viscosity in response to increasing shear rate ([3]; 1% (w/v) peptide) | viscosity in response to increasing shear rate ([3]; 1% peptide, 0.9% NaCl) | rheological properties (mechanical strength) before and after exposure to DMEM ([4]; 0.9% NaCl) | rheological properties (mechanical strength) before and after exposure to DMEM [4] | net charge as a function of pH [5] | Net charge at pH 7.5 [5] | mucosal aggregation at injection sites [6] | Appearance of stomach mucosa ([6]; pH 7.5) |
| --- | --- | --- | --- | --- | --- | --- | --- | --- | --- | --- | --- |
| CC(=O)N[C@@H](CCCCN)C(=O)N[C@@H](CC(C)C)C(=O)N[C@@H](CC(N)=O)C(=O)N[C@@H](CC(C)C)C(=O)N[C@@H](CCCCN)C(=O)N[C@@H](CC(C)C)C(=O)N[C@@H](CC(N)=O)C(=O)N[C@@H](CC(C)C)C(=O)N[C@@H](CCCCN)C(=O)N[C@@H](CC(C)C)C(=O)N[C@@H](CC(N)=O)C(=O)N[C@@H](CC(C)C)C(N)=O [KLNL12, Ac-KLNLKLNLKLNL-NH2] (Ac-KLNLKLNLKLNL-NH2) | resulted in submucosal elevation | better submucosal elevation than saline and MucoUp® | exhibited thixotropic properties | exhibit sheer thinning | exhibit sheer thinning | increased after DMEM treatment | increased after DMEM treatment | about +3 | +3 |  |  |
| CC(=O)N[C@@H](CC(N)=O)C(=O)N[C@@H](CC(C)C)C(=O)N[C@@H](CCC(=O)O)C(=O)N[C@@H](CC(C)C)C(=O)N[C@@H](CC(N)=O)C(=O)N[C@@H](CC(C)C)C(=O)N[C@@H](CCC(=O)O)C(=O)N[C@@H](CC(C)C)C(=O)N[C@@H](CC(N)=O)C(=O)N[C@@H](CC(C)C)C(=O)N[C@@H](CCC(=O)O)C(=O)N[C@@H](CC(C)C)C(N)=O [NLEL12, Ac-NLELNLELNLEL-NH2] (Ac-NLELNLELNLEL-NH2) |  |  | exhibited thixotropic properties | exhibit sheer thinning | exhibit sheer thinning | increased after DMEM treatment | increased after DMEM treatment | about −3 | −3 | mucosal aggregation was not observed | clear/transparent |
